Assay results: patent publication US5624923A, “Tricyclic diazepine vasopressin antagonists and oxytocin antagonists” (priority 1995, dated 1997)

How the values were obtained:
[1] = biological target: T1, Rat Kidney Medullary V2 Receptors (Rattus norvegicus, UniProt Q00788); assay: Binding Assay to Rat Kidney Medullary V2 Receptors; details: rat kidney medulla membranes; read-out: V2 IC50
T1 construct: Medullary tissues from rat kidneys are dissected out; from tissue; host or cells: rat kidney medulla membranes
T1 sequence (Q00788 whole entry): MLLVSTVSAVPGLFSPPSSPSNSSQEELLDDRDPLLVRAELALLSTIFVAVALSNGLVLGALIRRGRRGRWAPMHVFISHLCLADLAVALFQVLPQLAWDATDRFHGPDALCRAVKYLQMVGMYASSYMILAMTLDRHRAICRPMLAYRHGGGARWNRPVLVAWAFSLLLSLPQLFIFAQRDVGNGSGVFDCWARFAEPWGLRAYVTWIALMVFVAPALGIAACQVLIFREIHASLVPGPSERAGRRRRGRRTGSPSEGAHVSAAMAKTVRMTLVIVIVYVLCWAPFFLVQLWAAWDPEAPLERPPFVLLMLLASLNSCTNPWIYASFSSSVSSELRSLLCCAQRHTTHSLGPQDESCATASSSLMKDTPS
Procedure: Binding Assay to Rat Kidney Medullary V2 Receptors
Medullary tissues from rat kidneys are dissected out, cut into small pieces and soaked in a […] sodium chloride solution containing 1.0 mM EDTA with many changes of the liquid phase, until the solution is clear of blood. The tissue is homogenized in a 0.25M sucrose solution containing 1.0 mM EDTA and 0.1 mM PMSF using a Potter-Elvehjem homogenizer with a teflon pestle. The homogenate is filtered through several layers (4 layers) of cheese cloth. The filtrate is rehomogenized using a dounce homogenizer, with a tight fitting pestle. The final homogenate is centrifuged at 1500× g for 15 min. The nuclear pellet is discarded and the supernatant fluid recentrifuged at 40,000× g for 30 min. The resulting pellet formed contains a dark inner part with the exterior., slightly pink. The pink outer part is suspended in a small amount of 50.0 mM Tris. HCl buffer, pH 7.4. The protein content is determined by the Lowry's method (Lowry et al., J. Biol. Chem., 1953). The membrane suspension is stored at -70° C. in 50.0 mM Tris HCl, containing 0.2% inactivated BSA and 0.1 mM PMSF in aliquots of 1.0 ml containing 10.0 mg protein per ml of suspension until use in subsequent binding experiments.
The plates are left undisturbed on the bench top for 120 min to reach equilibrium. Non-specific binding is assessed in the presence of 1.0 μM of unlabeled ligand, added in 20 μl volume. For test compounds, these are solubilized in 50% dimethylsulfoxide (DMSO) and added in 20.0 μl volume to a final incubation volume of 200 μl. Upon completion of binding, the content of each well is filtered off, using a Brandel® cell Harvester (Gaithersburg, Md.). The radioactivity trapped on the filter disk by the ligand-receptor complex is assessed by liquid scintillation counting in a Packard LS Counter, with an efficiency of 65% for tritium. The data are analyzed for IC50 values by the LUNDON-2 program for competition (LUNDON SOFTWARE, Ohio).

Rat Hepatic V1 Receptors = biological target: T2, Rat Hepatic V1 Receptors (Rattus norvegicus, UniProt P30560); assay: Binding Assay to Rat Hepatic V1 Receptors; details: rat liver membranes; read-out: V1 IC50
T2 construct: Rat liver plasma membranes expressing the vasopressin V1 receptor subtypes; from tissue; host or cells: rat liver plasma membranes
T2 sequence (P30560 whole entry): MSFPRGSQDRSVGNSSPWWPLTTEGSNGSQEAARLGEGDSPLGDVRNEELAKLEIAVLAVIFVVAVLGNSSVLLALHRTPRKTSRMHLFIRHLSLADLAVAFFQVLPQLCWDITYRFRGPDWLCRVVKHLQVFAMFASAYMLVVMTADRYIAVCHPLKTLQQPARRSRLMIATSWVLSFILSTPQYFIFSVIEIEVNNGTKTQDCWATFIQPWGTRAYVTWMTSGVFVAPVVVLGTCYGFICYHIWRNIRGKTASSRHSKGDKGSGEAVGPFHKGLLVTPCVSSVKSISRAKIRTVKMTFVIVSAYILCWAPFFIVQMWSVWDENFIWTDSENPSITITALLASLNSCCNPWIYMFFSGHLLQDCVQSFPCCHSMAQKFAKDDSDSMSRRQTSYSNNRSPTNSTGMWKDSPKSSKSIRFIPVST
Procedure: Binding Assay to Rat Hepatic V1 Receptors
Rat liver plasma membranes expressing the vasopressin V1 receptor subtypes are isolated by sucrose density gradient according to the method described by Lesko et al., (1973). These membranes are quickly suspended in 50.0 mM Tris.HCl buffer, pH 7.4, containing 0.2% bovine serum albumin (BSA) and 0.1 mM phenylmethylsulfonylfluoride (PMSF) and kept frozen at -70° C. until used in subsequent binding experiments. For binding experiments, the following is added to the wells of a ninety-six well format microtiter plate: 100 μl of 100.0 mM Tris.HCl buffer containing 10.0 mM MgCl2, 0.2% heat inactivated BSA and a mixture of protease inhibitors: leupeptin, 1.0 mg %; aprotinin, 1.0 mg %; 1,10-phenanthroiine,2.0 mg %; trypsin inhibitor, 10.0 mg % and 0.1 mM PMSF, 20.0 μl of [phenylalanyl-3,4,5, -^3 H] vasopressin (S.A. 45.1 Ci/mmole) at 0.8 nM, and the reaction initiated by the addition of 80 μl of tissue membranes containing 20 μg of tissue protein. The plates are kept undisturbed on the bench top at room temperature for 120 min. to reach equilibrium. Non-specific samples are assayed in the presence of 0.1 μM of the unlabeled antagonist phenylalanylvasopressin, added in 20.0 μl volume.
For test compounds, these are solubilized in 50% dimethylsulfoxide (DMSO) and added in 20.0 μl volume to a final incubation volume of 200 μl . Upon completion of binding, the content of each well is filtered off, using a Brandel® cell Harvester (Gaithersburg, Md.). The radioactivity trapped on the filter disk by the ligand-receptor complex is assessed by liquid scintillation counting in a Packard LS Counter, with an efficiency of 65% for tritium. The data are analyzed for IC50 values by the LUNDON-2 program for competition (LUNDON SOFTWARE, Ohio).

Vasopressin V1 = Vasopressin V1 Antagonist Activity in Conscious Rats (vasopressin vasopressor response); type: in vivo, rat; design: Average Change: unit not given here; details: SHR
Outline: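 Conscious rats are restrained supine, and under local 2% procaine a PE 10/20 cannula is passed through the ventral caudal tail artery into the lower abdominal aorta. The caudal vein is cannulated for intravenous dosing. Blood pressure is recorded with a Statham P23Db transducer, and vasopressin injections are repeated after compound dosing. Percent antagonism is calculated against the pre-drug vasopressor response taken as 100%.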

[2] = 10 mg/kg i.v., VAS 0.01 i.u./kg, 30 min
[3] = 10 mg/kg i.v., VAS 0.02 i.u./kg, 30 min
[4] = 20 mg/kg i.v., VAS 0.01 i.u./kg, 60 min
[5] = 20 mg/kg i.v., VAS 0.01 i.u./kg, 90 min
[6] = 20 mg/kg i.v., VAS 0.01 i.u./kg, 120 min
[7] = 20 mg/kg i.v., VAS 0.01 i.u./kg, 180 min
[8] = 20 mg/kg i.v., VAS 0.01 i.u./kg, 240 min
[9] = 20 mg/kg i.v., VAS 0.01 i.u./kg, 300 min
[10] = 20 mg/kg i.v., VAS 0.02 i.u./kg, 60 min
[11] = 20 mg/kg i.v., VAS 0.02 i.u./kg, 90 min
[12] = 20 mg/kg i.v., VAS 0.02 i.u./kg, 120 min
[13] = 20 mg/kg i.v., VAS 0.02 i.u./kg, 180 min
[14] = 20 mg/kg i.v., VAS 0.02 i.u./kg, 240 min
[15] = 20 mg/kg i.v., VAS 0.02 i.u./kg, 300 min
[16] = 10 mg/kg i.v., VAS 0.01 i.u./kg, 60 min
[17] = 10 mg/kg i.v., VAS 0.01 i.u./kg, 90 min
[18] = 10 mg/kg i.v., VAS 0.01 i.u./kg, 120 min
[19] = 10 mg/kg i.v., VAS 0.01 i.u./kg, 180 min
[20] = 10 mg/kg i.v., VAS 0.01 i.u./kg, 240 min
[21] = 10 mg/kg i.v., VAS 0.01 i.u./kg, 300 min
[22] = 10 mg/kg i.v., VAS 0.02 i.u./kg, 60 min
[23] = 10 mg/kg i.v., VAS 0.02 i.u./kg, 90 min
[24] = 10 mg/kg i.v., VAS 0.02 i.u./kg, 120 min
[25] = 10 mg/kg i.v., VAS 0.02 i.u./kg, 180 min
[26] = 10 mg/kg i.v., VAS 0.02 i.u./kg, 240 min
[27] = 10 mg/kg i.v., VAS 0.02 i.u./kg, 300 min

O=C(Nc1ccc(C(=O)N2Cc3cccn3Cc3ccccc32)cc1)c1ccc2[nH]ccc2c1 [Example 117, N-[4-(5H-pyrrolo[2,1-c][1,4]benzodiazepin-10(11H)-ylcarbonyl)phenyl]-1H-indole-5-carboxamide]
IC50 [1]: 377 nM
IC50 (Rat Hepatic V1 Receptors): 2770 nM
% Inhibition (Vasopressin V1; [2]): 1%
Average Change (Vasopressin V1; [2]): 36
% Inhibition (Vasopressin V1; [3]): -12%
Average Change (Vasopressin V1; [3]): 63
% Inhibition (Vasopressin V1; [4]): 1%
Average Change (Vasopressin V1; [4]): 36
% Inhibition (Vasopressin V1; [5]): 38%
Average Change (Vasopressin V1; [5]): 22.5
% Inhibition (Vasopressin V1; [6]): 37%
Average Change (Vasopressin V1; [6]): 23
% Inhibition (Vasopressin V1; [7]): 27%
Average Change (Vasopressin V1; [7]): 26.5
% Inhibition (Vasopressin V1; [8]): 32%
Average Change (Vasopressin V1; [8]): 25
% Inhibition (Vasopressin V1; [9]): 29%
Average Change (Vasopressin V1; [9]): 26
% Inhibition (Vasopressin V1; [10]): 29%
Average Change (Vasopressin V1; [10]): 40
% Inhibition (Vasopressin V1; [11]): 19%
Average Change (Vasopressin V1; [11]): 46
% Inhibition (Vasopressin V1; [12]): 33%
Average Change (Vasopressin V1; [12]): 38
% Inhibition (Vasopressin V1; [13]): 19%
Average Change (Vasopressin V1; [13]): 46
% Inhibition (Vasopressin V1; [14]): 28%
Average Change (Vasopressin V1; [14]): 40.5
% Inhibition (Vasopressin V1; [15]): 25%
Average Change (Vasopressin V1; [15]): 42.5

CCOc1ccccc1C(=O)Nc1ccc(C(=O)N2Cc3cccn3Cc3ccccc32)cc1 [Example 84, N-[4-(5H-Pyrrolo[2,1-c][1,4]benzodiazepin-10(11H)-ylcarbonyl)phenyl]-2-ethoxybenzamide]
IC50 [1]: 77 nM
IC50 (Rat Hepatic V1 Receptors): 45 nM
% Inhibition (Vasopressin V1; [2]): 77%
Average Change (Vasopressin V1; [2]): 10.5
% Inhibition (Vasopressin V1; [16]): 64%
Average Change (Vasopressin V1; [16]): 16.5
% Inhibition (Vasopressin V1; [17]): 72%
Average Change (Vasopressin V1; [17]): 13
% Inhibition (Vasopressin V1; [18]): 58%
Average Change (Vasopressin V1; [18]): 19.5
% Inhibition (Vasopressin V1; [19]): 47%
Average Change (Vasopressin V1; [19]): 24.5
% Inhibition (Vasopressin V1; [20]): 43%
Average Change (Vasopressin V1; [20]): 26
% Inhibition (Vasopressin V1; [21]): 51%
Average Change (Vasopressin V1; [21]): 22.5
% Inhibition (Vasopressin V1; [3]): 76%
Average Change (Vasopressin V1; [3]): 14.5
% Inhibition (Vasopressin V1; [22]): 45%
Average Change (Vasopressin V1; [22]): 33.5
% Inhibition (Vasopressin V1; [23]): 57%
Average Change (Vasopressin V1; [23]): 26
% Inhibition (Vasopressin V1; [24]): 47%
Average Change (Vasopressin V1; [24]): 32.5
% Inhibition (Vasopressin V1; [25]): 48%
Average Change (Vasopressin V1; [25]): 31.5
% Inhibition (Vasopressin V1; [26]): 39%
Average Change (Vasopressin V1; [26]): 37
% Inhibition (Vasopressin V1; [27]): 30%
Average Change (Vasopressin V1; [27]): 43

O=C(Cc1ccccc1F)Nc1ccc(C(=O)N2Cc3cccn3Cc3ccccc32)cc1 [Example 357, N-[4-(5H-Pyrrolo[2,1-c][1,4]benzodiazepin-10(11)ylcarbonyl)phenyl]-2-fluorobenzeneacetamide]
IC50 [1]: 17 nM
IC50 (Rat Hepatic V1 Receptors): 19 nM
% Inhibition (Vasopressin V1; [2]): 60%
Average Change (Vasopressin V1; [2]): 16.5
% Inhibition (Vasopressin V1; [16]): 89%
Average Change (Vasopressin V1; [16]): 4.5
% Inhibition (Vasopressin V1; [17]): 80%
Average Change (Vasopressin V1; [17]): 8
% Inhibition (Vasopressin V1; [18]): 80%
Average Change (Vasopressin V1; [18]): 8
% Inhibition (Vasopressin V1; [19]): 77%
Average Change (Vasopressin V1; [19]): 9.5
% Inhibition (Vasopressin V1; [20]): 66%
Average Change (Vasopressin V1; [20]): 14
% Inhibition (Vasopressin V1; [21]): 61%
Average Change (Vasopressin V1; [21]): 16
% Inhibition (Vasopressin V1; [3]): 68%
Average Change (Vasopressin V1; [3]): 16
% Inhibition (Vasopressin V1; [22]): 79%
Average Change (Vasopressin V1; [22]): 10.5
% Inhibition (Vasopressin V1; [23]): 79%
Average Change (Vasopressin V1; [23]): 10.5
% Inhibition (Vasopressin V1; [24]): 88%
Average Change (Vasopressin V1; [24]): 6
% Inhibition (Vasopressin V1; [25]): 78%
Average Change (Vasopressin V1; [25]): 11
% Inhibition (Vasopressin V1; [26]): 71%
Average Change (Vasopressin V1; [26]): 14.5
% Inhibition (Vasopressin V1; [27]): 68%
Average Change (Vasopressin V1; [27]): 16
